According to patent US5744121A (priority 1996, dated 1998):
Where two headings read alike, the source gives them in different places. One block for each compound: values may come before it.

Legend:
5-HT1A receptor = assay: Blocking studies: regional brain uptake ratios in rats; type: in vivo; details: pretreated rats, 30 min post iv injection of tracer
Method: In order to further characterize the in vivo brain uptake of 1a in rats, blocking studies were carried out to determine changes of the ratios of regional brain uptake. […] Ratios for each region were calculated based on the % dose/gram of each region divided by the same in CB. […] (HP: hippocampus; CB: cerebellum; HY: hypothalamus; CX: cortex; ST: striatum).

[1] = system: 5-HT1A receptor (rat hippocampal membranes); details: cited from earlier work
[2] = molecular target: T1, 5-HT1A receptor (rat hippocampal homogenates) (Rattus norvegicus, UniProt P19327); assay: Inhibition of [^125 I]-8-OH-PIPAT binding to rat hippocampal homogenates; details: ligand [^125 I]-8-OH-PIPAT
T1 construct: in rat hippocampal membrane preparations; from tissue; host or cells: rat hippocampus (membrane preparations / tissue homogenates)
T1 sequence (P19327 1-422): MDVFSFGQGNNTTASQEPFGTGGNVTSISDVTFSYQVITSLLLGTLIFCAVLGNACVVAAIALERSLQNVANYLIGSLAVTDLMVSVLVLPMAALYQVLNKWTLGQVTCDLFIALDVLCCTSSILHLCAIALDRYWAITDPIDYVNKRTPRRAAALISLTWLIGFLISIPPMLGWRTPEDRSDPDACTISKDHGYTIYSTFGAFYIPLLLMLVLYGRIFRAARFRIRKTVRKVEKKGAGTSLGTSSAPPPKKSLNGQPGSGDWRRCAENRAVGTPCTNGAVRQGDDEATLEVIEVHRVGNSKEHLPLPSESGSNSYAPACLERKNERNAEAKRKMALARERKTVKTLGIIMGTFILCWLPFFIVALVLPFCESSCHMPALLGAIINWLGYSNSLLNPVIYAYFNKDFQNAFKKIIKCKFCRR
Text: The 5-HT1A binding affinity of p-, m-, o- MPPI, p-fluoro- and p-nitro-MPP derivatives (1a-f) in rat hippocampal membrane preparations with [^123 ]

[3] = molecular target: T1, 5-HT1A receptor (rat hippocampal homogenates); assay: Inhibition of [^125 I]-p-MPP binding to rat hippocampal homogenates
[4] = Biodistribution in rats after iv injection; type: in vivo, Male Sprague-Dawley rats; details: average of 3 rats ± SD
Method: Male Sprague-Dawley rats (225-300 g), allowed free access to food and water, were used for an in vivo biodistribution study. While the rats were under ether anesthesia, 0.2 mL of a saline solution containing [^123 I]1a and 1b (8-10 μCi) was injected directly into the femoral vein, and rats were sacrificed at various time points postinjection by cardiac excision under ether anesthesia. The organs of interest were removed and weighed and the radioactivity was counted with a Packard […] automatic counter (Model 5000). The percentage dose per organ was calculated by a comparison of the tissue counts to suitably diluted aliquots of the injected material.

[5] = Regional brain distribution in rats after iv injection; type: in vivo, Male Sprague-Dawley rats; details: rat; for tissue uptake at 0.05 h: 3 min; for tissue uptake at 2 h: 120 min
Method: While the rats were under ether anesthesia, 0.2 mL of a saline solution containing [^123 I]1a and 1b (8-10 μCi) was injected directly into the femoral vein, and rats were sacrificed at various time points postinjection by cardiac excision under ether anesthesia. The organs of interest were removed and weighed and the radioactivity was counted with a Packard garnma automatic counter (Model 5000). The percentage dose per organ was calculated by a comparison of the tissue counts to suitably diluted aliquots of the injected material. Total activities of blood and muscle were calculated under the assumption that they were 7% and 40% of the total body weight, respectively.
By dissecting, weighing and counting samples from different brain regions (cortex, striatum, hippocampus, hypothalamus and cerebellum), the percentage dose/gram of the sample was calculated by comparing the sample counts with the count of the diluted initial dose.

[6] = Stability of the radiolabelled product on storage; type: physicochemical; details: -20° C., at least four weeks, HPLC; 40320 min
[7] = molecular target: T2, 5-HT1A receptor (rat hippocampus tissue homogenates) (Rattus norvegicus, UniProt P19327); assay: Saturation binding of [^125 I]p-MPPI to rat hippocampus tissue homogenates
T2 construct: in rat hippocampal membrane preparations; from tissue; host or cells: rat hippocampus (membrane preparations / tissue homogenates)
T2 sequence (P19327 1-422): T1 sequence (P19327 1-422)

[8] = ligand [^125 I]-p-MPP, rat hippocampal homogenates, read-out: Ki
[9] = cerebellum, iv, rats (Table IV), read-out: Regional distribution, cerebellum
[10] = cortex, iv, rats (Table IV), read-out: Regional distribution, cortex
[11] = hippocampus, iv, rats (Table IV), read-out: Regional distribution, hippocampus
[12] = hypothalamus, iv, rats (Table IV), read-out: Regional distribution, hypothalamus
[13] = striatum, iv, rats (Table IV), read-out: Regional distribution, striatum

SMILES: CCCN(CCC)C1CCc2cccc(O)c2C1 (racemic) [(± 8-OH-DPAT), 8-hydroxy-2-(N,N-di-n-propyl)aminotetralin, reference compound]
- specific uptake of [^123 I] or [^125 I]1a in the hippocampus after pretreatment (5-HT1A receptor): mark decrease

SMILES: COc1ccccc1N1CCN(C[C@@H](C(=O)NC(C)(C)C)c2ccccc2)CC1 [(5)-WAY 100135, N-tert-butyl-3-(4-(-2-methoxyphenyl)piperazin-1-yl)-2-phenylpropionamide]
- selectivity ([1]; 5-HT1A receptor): selective antagonist at both somatodendritic and postsynaptic receptor
- IC50 ([1]; rat hippocampal membranes): 15 nM

SMILES: COc1ccccc1N1CCN(CCN(C(=O)c2cccc(I)c2)c2ccccn2)CC1 [Compound 1b, 4-(2'-methoxy)phenyl-1-[2"-(N-2"-pyridinyl)-m-iodobenzamido]ethyl piperazine]
- Ki [2]: 1.7 ± 0.1 nM
- Ki [3, 8]: 2.46 ± 0.14 nM
- Brain uptake ([4]; 2 min): 0.76 % dose/organ
- tissue uptake at 1 h ([5]; hippocampus, 60 minutes after iv injection, ^123 I labeled, read-out: Uptake in hippocampal tissue): 0.013 %ID/g
- purity on storage [6]: > 95%

- Ki [2]: 3.3 ± 0.8 nM
SMILES: COc1ccccc1N1CCN(CCN(C(=O)c2ccc(F)cc2)c2ccccn2)CC1 [Compound 1d]

- Ki [2]: 6.08 ± 0.8 nM
SMILES: COc1ccccc1N1CCN(CCN(C(=O)c2ccc(I)cc2)c2ncccn2)CC1 [Compound 1g, 4(2'-methoxy)phenyl-1-[2'-(N-2"-pyrimidinyl)-p-iodobenzamido] ethy piperazine]

SMILES: COc1cccc(OC)c1OCCNCC1COc2ccccc2O1 (stereo not shown) [WB 4101]
- Ki [3, 8]: 5 ± 0.5 nM

- Blood uptake ([4]; 2 min): 5.06 ± 0.32 % dose/organ
- Brain uptake ([4]; 2 min): 0.76 ± 0.05 % dose/organ
- Heart uptake ([4]; 2 min): 0.77 ± 0.08 % dose/organ
- Kidney uptake ([4]; 2 min): 3.67 ± 0.22 % dose/organ
- Liver uptake ([4]; 2 min): 25.72 ± 3.29 % dose/organ
- Lung uptake ([4]; 2 min): 1.87 ± 0.08 % dose/organ
- Muscle uptake ([4]; 2 min): 14.98 ± 1.16 % dose/organ
- Skin uptake ([4]; 2 min): 10.16 ± 3.32 % dose/organ
- Spleen uptake ([4]; 2 min): 0.68 ± 0.12 % dose/organ
- Thyroid uptake ([4]; 2 min): 0.07 ± 0.02 % dose/organ
- Blood uptake ([4]; 30 min): 2.27 ± 0.24 % dose/organ
- Brain uptake ([4]; 30 min): 0.07 ± 0.004 % dose/organ
- Heart uptake ([4]; 30 min): 0.11 ± 0.008 % dose/organ
- Kidney uptake ([4]; 30 min): 1.18 ± 0.11 % dose/organ
- Liver uptake ([4]; 30 min): 8.04 ± 0.63 % dose/organ
- Lung uptake ([4]; 30 min): 0.31 ± 0.004 % dose/organ
- Muscle uptake ([4]; 30 min): 10.13 ± 4.90 % dose/organ
- Skin uptake ([4]; 30 min): 13.71 ± 0.52 % dose/organ
- Spleen uptake ([4]; 30 min): 0.09 ± 0.01 % dose/organ
- Thyroid uptake ([4]; 30 min): 0.06 ± 0.02 % dose/organ
- Blood uptake ([4]; 60 min): 1.21 ± 0.08 % dose/organ
- Brain uptake ([4]; 60 min): 0.02 ± 0.006 % dose/organ
- Heart uptake ([4]; 60 min): 0.05 ± 0.005 % dose/organ
- Kidney uptake ([4]; 60 min): 0.54 ± 0.007 % dose/organ
- Liver uptake ([4]; 60 min): 4.58 ± 0.30 % dose/organ
- Lung uptake ([4]; 60 min): 0.13 ± 0.02 % dose/organ
- Muscle uptake ([4]; 60 min): 4.75 ± 1.76 % dose/organ
- Skin uptake ([4]; 60 min): 5.85 ± 1.99 % dose/organ
- Spleen uptake ([4]; 60 min): 0.04 ± 0.006 % dose/organ
- Thyroid uptake ([4]; 60 min): 0.05 ± 0.02 % dose/organ
- Blood uptake ([4]; 120 min): 1.08 ± 0.13 % dose/organ
- Brain uptake ([4]; 120 min): 0.016 ± 0.0005 % dose/organ
- Heart uptake ([4]; 120 min): 0.03 ± 0.003 % dose/organ
- Kidney uptake ([4]; 120 min): 0.36 ± 0.008 % dose/organ
- Liver uptake ([4]; 120 min): 4.13 ± 0.44 % dose/organ
- Lung uptake ([4]; 120 min): 0.10 ± 0.004 % dose/organ
- Muscle uptake ([4]; 120 min): 5.56 ± 3.54 % dose/organ
- Skin uptake ([4]; 120 min): 3.66 ± 0.68 % dose/organ
- Spleen uptake ([4]; 120 min): 0.029 ± 0.002 % dose/organ
- Thyroid uptake ([4]; 120 min): 0.11 ± 0.07 % dose/organ
- tissue uptake at 2 min [5, 9]: 0.47 ± 0.01 %ID/g
- tissue uptake at 0.05 h [5, 9]: 0.039 ± 0.003 %ID/g
- tissue uptake at 1 h ([5]; cerebellum, 60 min, iv, rats (Table IV), read-out: Regional distribution, cerebellum): 0.014 ± 0.004 %ID/g
- tissue uptake at 2 h [5, 9]: 0.008 ± 0.0004 %ID/g
- tissue uptake at 2 min [5, 10]: 0.5 ± 0.03 %ID/g
- tissue uptake at 0.05 h [5, 10]: 0.043 ± 0.002 %ID/g
- tissue uptake at 1 h ([5]; cortex, 60 min, iv, rats (Table IV), read-out: Regional distribution, cortex): 0.015 ± 0.005 %ID/g
- tissue uptake at 2 h [5, 10]: 0.008 ± 0.0008 %ID/g
- tissue uptake at 2 min [5, 11]: 0.54 ± 0.03 %ID/g
- tissue uptake at 0.05 h [5, 11]: 0.051 ± 0.005 %ID/g
- tissue uptake at 1 h ([5]; hippocampus, 60 min, iv, rats (Table IV), read-out: Regional distribution, hippocampus): 0.013 ± 0.004 %ID/g
- tissue uptake at 2 h [5, 11]: 0.006 ± 0.001 %ID/g
- tissue uptake at 2 min [5, 12]: 0.5 ± 0.04 %ID/g
- tissue uptake at 0.05 h [5, 12]: 0.042 ± 0.003 %ID/g
- tissue uptake at 1 h ([5]; hypothalamus, 60 min, iv, rats (Table IV), read-out: Regional distribution, hypothalamus): 0.015 ± 0.005 %ID/g
- tissue uptake at 2 h [5, 12]: 0.01 ± 0.002 %ID/g
- tissue uptake at 2 min [5, 13]: 0.51 ± 0.003 %ID/g
- tissue uptake at 0.05 h [5, 13]: 0.042 ± 0.004 %ID/g
- tissue uptake at 1 h ([5]; striatum, 60 min, iv, rats (Table IV), read-out: Regional distribution, striatum): 0.012 ± 0.003 %ID/g
- tissue uptake at 2 h [5, 13]: 0.006 ± 0.0008 %ID/g
SMILES: COc1ccccc1N1CCN(CCN(C(=O)c2cccc([123I])c2)c2ccccn2)CC1 [[^123 I] 1b]

SMILES: COc1ccccc1N1CCN(CCN(C(=O)c2ccc([125I])cc2)c2ccccn2)CC1 [[^125 I]-MPPI]
- Bmax ([7]; 37° C., 15 min, 50 mM Tris-HCl pH 7.4, 2 mM MgCl2, 10 μM 5-HT for nonspecific binding): 264 fmol/mg of protein
- Kd ([7]; 37° C., 15 min, 50 mM Tris-HCl pH 7.4, 2 mM MgCl2, 10 μM 5-HT for nonspecific binding, read-out: Kd (FIG. 1)): 0.36 nM
- Kd ([7]; rat hippocampal homogenates, Kung, Unpublished data, read-out: Kd (Table I footnote)): 0.3 nM

SMILES: O=C(c1ccc(F)cc1)C1CCN(CCn2c(=O)[nH]c3ccccc3c2=O)CC1 [hetanserin]
- Ki [3]: 1970 ± 98 nM

SMILES: O=C(CCCN1CCC2(CC1)C(=O)NCN2c1ccccc1)c1ccc(F)cc1 [spiperone]
- Ki [3, 8]: 12.2 ± 2.2 nM
